Measurements as given in US11084833B2, “Antibacterial agents against D,D- and L,D-transpeptidases” (priority 2016, dated 2021).
Like-named read-outs stand apart in the source and are kept apart here.

Experiments:
[1] = test system: Mycobacterium tuberculosis; experiment: Broth dilution MIC; format: cell-based; details: 336 h, end point reading at 2 weeks
[2] = test system: Actinobacter baumannii 6 M-1b; experiment: Broth dilution MIC; format: cell-based; details: overnight incubation
Enterobacter cloacae = experiment: Broth dilution MIC; format: cell-based; details: overnight incubation
Klebsiella pneumoniae = experiment: Broth dilution MIC; format: cell-based; details: overnight incubation
[3] = test system: Methicillin Resistant Staphylococcus aureus; experiment: Broth dilution MIC; format: cell-based; details: overnight incubation
Pseudomonas aeruginosa = experiment: Broth dilution MIC; format: cell-based; details: overnight incubation
[4] = test system: Methicillin Susceptible Staphylococcus aureus; experiment: Broth dilution MIC; format: cell-based; details: overnight incubation
LdtPa = experiment: UPLC-MS analysis of acyl-enzyme adducts; format: binding, Pseudomonas aeruginosa; details: over both the non-carbapenems and carbapenems tested
LdtKp = experiment: UPLC-HRMS analysis of L,D-transpeptidase/β-lactam adducts; format: binding, Klebsiella pneumoniae; details: over both the non-carbapenems and carbapenems tested
LdtMab2 [5] = experiment: as above; format: binding, Mycobacterium abscessus; details: over both the non-carbapenems and carbapenems tested
LdtMt2 [6] = target: T1, LdtMt2 (Mycobacterium tuberculosis, UniProt I6Y9J2); experiment: Nitrocefin hydrolyzing activity after incubation with β-lactams; format: biochemical, M. tuberculosis
[7] = target: penicillin binding protein DacB2 (Mycobacterium tuberculosis, UniProt I6Y204); experiment: UPLC-MS analysis of acyl-enzyme adducts
LdtMab2 [8] = format: binding, M. abscessus
LdtMt1 [9] = target: T2, LdtMt1 (Mycobacterium tuberculosis, UniProt O53638); format: binding, M. tuberculosis
LdtCl = experiment: UPLC-HRMS analysis of L,D-transpeptidase/β-lactam adducts; format: binding, Enterobacter cloacae; details: over both the non-carbapenems and carbapenems tested
M. tuberculosis H37Rv = format: in vivo, BALB/c mice; details: for gross lung lesions: either alone or in combination with rifampin, end of treatment
LdtMt1 [10] = target: T2, LdtMt1; experiment: UPLC-MS analysis of acyl-enzyme adducts; format: binding, M. tuberculosis
LdtMab1 [11] = experiment: UPLC-MS analysis of acyl-enzyme adducts; format: binding, Mycobacterium abscessus; details: over both the non-carbapenems and carbapenems tested
LdtMt2 [12] = target: T1, LdtMt2; format: binding, M. tuberculosis; details: for acyl-enzyme adduct mass: UPLC-MS
LdtMab1 [13] = experiment: Isothermal titration calorimetry; format: binding, M. abscessus
LdtMt2 [14] = target: T1, LdtMt2; format: binding, M. tuberculosis
LdtMt2 [15] = target: T1, LdtMt2; experiment: biochemical; design: species or system M. tuberculosis; details: non-linear regression, read-out: kinact/Kapp ratio (converted)
[16] = test system: dehydropepetidase-1 (DHP-1); details: cited from earlier work
[17] = Enterobacter cloacae, read-out: MIC
[18] = following incubation with β-lactam
[19] = equimolar mixture of faropenem, doripenem, biapenem and tebipenem

T1 sequence (I6Y9J2 35-408 limits assumed): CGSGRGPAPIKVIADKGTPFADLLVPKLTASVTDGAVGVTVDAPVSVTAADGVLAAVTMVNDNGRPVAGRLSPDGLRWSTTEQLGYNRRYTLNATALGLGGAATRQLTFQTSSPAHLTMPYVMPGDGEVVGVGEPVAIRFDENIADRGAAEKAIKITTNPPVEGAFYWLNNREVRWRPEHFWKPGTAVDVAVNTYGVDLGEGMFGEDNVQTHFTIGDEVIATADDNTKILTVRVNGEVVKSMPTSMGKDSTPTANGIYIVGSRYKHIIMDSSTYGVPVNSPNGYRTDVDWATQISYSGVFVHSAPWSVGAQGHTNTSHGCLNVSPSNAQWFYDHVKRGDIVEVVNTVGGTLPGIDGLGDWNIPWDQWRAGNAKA
T2 sequence (O53638 29-251): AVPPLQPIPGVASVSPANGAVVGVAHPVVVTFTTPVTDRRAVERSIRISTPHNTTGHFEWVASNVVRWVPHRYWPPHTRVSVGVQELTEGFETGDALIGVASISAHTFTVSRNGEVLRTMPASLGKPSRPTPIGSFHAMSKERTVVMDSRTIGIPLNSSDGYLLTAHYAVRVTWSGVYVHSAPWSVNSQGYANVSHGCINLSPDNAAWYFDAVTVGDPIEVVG
Chain of penicillin binding protein DacB2 (I6Y204 23-291): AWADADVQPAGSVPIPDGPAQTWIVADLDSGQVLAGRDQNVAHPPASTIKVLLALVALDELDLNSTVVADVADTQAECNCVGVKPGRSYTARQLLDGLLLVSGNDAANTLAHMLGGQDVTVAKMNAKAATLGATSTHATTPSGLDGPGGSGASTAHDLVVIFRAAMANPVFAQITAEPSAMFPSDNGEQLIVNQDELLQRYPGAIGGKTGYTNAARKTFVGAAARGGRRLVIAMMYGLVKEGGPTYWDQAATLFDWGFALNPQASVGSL

## COC(=O)CCSC1=C(C(=O)[O-])N2C(=O)[C@H]([C@@H](C)O)[C@H]2S1.[K+] [Compound T408, Potassium (5R,6S)-6-((R)-1-hydroxyethyl)-3-((3-methoxy-3-oxopropyl)thio)-7-oxo-4-thia-1-azabicyclo[3.2.0]hept-2-ene-2-carboxylate]
[1]
  MIC: 0.5 to 1 µg/mL
[2]
  MIC: 16 to 32 µg/mL
Enterobacter cloacae; unit as printed for T408
  MIC: 4-8 g/mL
Klebsiella pneumoniae
  MIC: 8 to 16 µg/mL

## C[C@@H](O)C1C(=O)N2C(C(=O)[O-])=C(SC3CN(C4=NCCS4)C3)SC12.[K+] (stereo in doubt) [Compound T405, Potassium (5S,6R)-3-((1-(4,5-dihydrothiazol-2-yl)azetidin-3-yl)thio)-6-((R)-1-hydroxyethyl)-7-oxo-4-thia-1-azabicyclo[3.2.0]hept-2-ene-2-carboxylate]
[3]
  MIC: 0.03 to 0.06 µg/mL
Pseudomonas aeruginosa
  MIC: 4 to 8 µg/mL
[1]
  MIC: 0.5 to 1 µg/mL
[2]
  MIC: 4 to 8 µg/mL
Enterobacter cloacae; [17]
  MIC: 0.25 to 0.5 µg/mL
[4]
  MIC: 0.03 to 0.06 µg/mL
Klebsiella pneumoniae
  MIC: 0.125 to 0.25 µg/mL

## C[C@@H](O)[C@H]1C(=O)N2C(C(=O)O)=C([C@H]3CCCO3)S[C@H]12 [faropenem]
LdtPa
  preferential reaction in β-lactam mixtures: preferentially reacted with faropenem
LdtKp
  preferential reaction in β-lactam mixtures: preferentially reacted with faropenem
LdtMab2 [5]
  preferential reaction in β-lactam mixtures: preferentially reacted with faropenem
LdtMt2 [6]; [18]
  inhibition of nitrocefin hydrolysis: robustly inhibited
[7]
  species detected in competition assay: the only species detected
LdtMab2 [8]
  ITC binding: Binding
LdtMt1 [9]
  ITC binding: single-modality binding
LdtCl
  preferential reaction in β-lactam mixtures: preferentially reacted with faropenem
M. tuberculosis H37Rv
  gross lung lesions: prevented the development of gross lung lesions
LdtMt1 [10]; UPLC-MS
  acyl-enzyme adduct mass: +86 Da
LdtMt1 [10]; [19]
  adduct detected in competition assay: the only adduct detected
LdtMab1 [11]
  preferential reaction in β-lactam mixtures: preferentially reacted with faropenem
LdtMt2 [12]
  acyl-enzyme adduct mass: +86 Da
LdtMt2 [12]; [19]
  adduct detected in competition assay: the only adduct detected
LdtMab1 [13]
  ITC binding: Binding
LdtMt2 [14]
  ITC binding: single-modality binding

## C[C@@H](O)[C@H]1C(=O)N2C(C(=O)[O-])=C(SC3CNC(C(=O)N(C)C)C3)S[C@H]12.[K+] (stereo in doubt) [Compound T410, Potassium (5R,6S)-3-(((3R,5R)-5-(dimethylcarbamoyl)pyrrolidin-3-yl)thio)-6-((R)-1-hydroxyethyl)-7-oxo-4-thia-1-azabicyclo[3.2.0]hept-2-ene-2-carboxylate]
Pseudomonas aeruginosa
  MIC: 0.5 to 1 µg/mL
[1]
  MIC: 8 to 16 µg/mL
[2]
  MIC: 0.5 to 1 µg/mL
Enterobacter cloacae; [17]
  MIC: 1 to 2 µg/mL
Klebsiella pneumoniae
  MIC: 2 to 4 µg/mL

## C[C@@H](O)[C@H]1C(=O)N2C(C(=O)O)=C(S[C@@H]3CN[C@H](CNS(N)(=O)=O)C3)[C@H](C)[C@H]12 [doripenem]
LdtMt2 [6]; [18]
  inhibition of nitrocefin hydrolysis: robustly inhibited
LdtMt2 [12]
  acyl-enzyme adduct mass: 123 Da

## C[C@@H](O)[C@H]1C(=O)N2C(C(=O)O)=C(SC3CN(C4=NCCS4)C3)[C@H](C)[C@H]12 [tebipenem]
LdtMab2 [8]
  ITC binding: Binding
LdtMt1 [9]
  ITC binding: single-modality binding
LdtMab1 [13]
  ITC binding: Binding
LdtMt2 [14]
  ITC binding: single-modality binding

## C[C@@H](O)[C@H]1C(=O)N2C(C(=O)[O-])=C(SC3CNC(CNS(N)(=O)=O)C3)S[C@H]12.[K+] (stereo in doubt) [Compound T409, Potassium (5R,6S)-6-((R)-1-hydroxyethyl)-7-oxo-3-(((3R,5R)-5-((sulfamoylamino)methyl)pyrrolidin-3-yl)thio)-4-thia-1-azabicyclo[3.2.0]hept-2-ene-2-carboxylate]
[1]
  MIC: 0.5 to 1 µg/mL

## CC1(C)S[C@@H]2[C@H](NC(=O)C(C(=O)O)c3ccccc3)C(=O)N2[C@H]1C(=O)O (stereo partly drawn) [carbenicillin]
[7]; UPLC-MS
  adduct mass: +379 Da
LdtMt2 [12]
  adduct formation: failed to bind

## CCCSC1=C(C(=O)[O-])N2C(=O)[C@H]([C@@H](C)O)[C@H]2S1.[K+] [Compound T406, Potassium (5R,6S)-6-((R)-1-hydroxyethyl)-3-propylthio-7-oxo-4-thia-1-azabicyclo[3.2.0]hept-2-ene-2-carboxylate]
[1]
  MIC: 0.5 to 1 µg/mL
[2]
  MIC: 4 to 8 µg/mL
Enterobacter cloacae; [17]
  MIC: 4 to 8 µg/mL
Klebsiella pneumoniae
  MIC: 0.25 to 0.5 µg/mL

## C[C@@H](O)[C@H]1C(=O)N2C(C(=O)[O-])=C(SC3Cn4cnc[n+]4C3)[C@H](C)[C@H]12 (stereo partly drawn) [biapenem]
LdtMt2 [15]
  kinact/KI: 3830 M⁻¹ s⁻¹
LdtMt2 [6]; [18]
  inhibition of nitrocefin hydrolysis: robustly inhibited
[16]
  inactivation by DHP-1: resistant to inactivation by DHP-1
M. tuberculosis H37Rv
  gross lung lesions: prevented the development of gross lung lesions
M. tuberculosis H37Rv; mouse, in vivo
  activity on bacterial load (CFUs) in the lungs: bacteriostatic activity
LdtMt2 [12]
  adduct formation: Stable adducts could be detected

## CC(=O)OCC1=C(C(=O)O)N2C(=O)[C@@H](NC(=O)Cc3cccs3)[C@H]2SC1 [cephalothin]
LdtMt2 [6]
  inhibition of nitrocefin hydrolysis: comparable inhibitory activity

## C[C@@H](O)[C@H]1C(=O)N2C(C(=O)[O-])=C(SCCO)S[C@H]12.[K+] [Compound T407, Potassium (5R,6S)-6-((R)-1-hydroxyethyl)-3-((2-hydroxyethyl)thio)-7-oxo-4-thia-1-azabicyclo[3.2.0]hept-2-ene-2-carboxylate]
[1]
  MIC: 2 to 4 µg/mL
Klebsiella pneumoniae
  MIC: 8 to 16 µg/mL
